Test results reported in ChEMBL document CHEMBL1201862, “PubChem BioAssay data set” (2004).
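The compound was tested at five concentrations on cells cultured in 96-well plates, with a 48-hour exposure period. Abbreviation: GI50, concentration required for 50% inhibition of growth.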 Active and inactive are the calls of the source. Cut-off read from the data, not from the text of the source: active = GI50 up to about 1.1 µM and inactive = higher.

Experiments:
Experiment in all cases: NCI tumour cell line growth inhibition, 48 h
[1] = tested on: HCT-116
[2] = tested on: K562
[3] = tested on: IGROV-1
[4] = tested on: 786-0
[5] = tested on: MDA-MB-231
[6] = tested on: A549
[7] = tested on: MOLT-4
[8] = tested on: SK-MEL-2
[9] = tested on: RPMI-8226
[10] = tested on: HCC 2998
[11] = tested on: CCRF-CEM
[12] = tested on: U-251
[13] = tested on: Malme-3M
[14] = tested on: NCI-H522
[15] = tested on: HCT-15
[16] = tested on: SK-MEL-28
[17] = tested on: M14
[18] = tested on: SK-OV-3
[19] = tested on: A498
[20] = tested on: MDA-N

Row | SMILES | GI50 [1] | GI50 [2] | GI50 [3] | GI50 [4] | GI50 [5] | GI50 [6] | GI50 [7] | GI50 [8] | GI50 [9] | GI50 [10] | GI50 [11] | GI50 [12] | GI50 [13] | GI50 [14] | GI50 [15] | GI50 [16] | GI50 [17] | GI50 [18] | GI50 [19] | GI50 [20]
1 | N#C[BH2-][n+]1ccc(C(=O)NNC(c2ccccc2)C(F)(F)F)cc1 (stereo unspecified) | > 100 µM (inactive) | > 100 µM (inactive) | > 100 µM (inactive) | > 100 µM (inactive) | > 100 µM (inactive) | > 100 µM (inactive) | > 100 µM (inactive) | > 100 µM (inactive) | > 100 µM (inactive) | > 100 µM (inactive) | > 100 µM (inactive) | > 100 µM (inactive) | > 100 µM (inactive) | 68.9 µM (inactive) | > 100 µM | > 100 µM (inactive) | > 100 µM (inactive) |  |  | 
2 | COc1cc(/C=C/C=C2\CC(C)C/C(=C\C=C\c3ccc(O)c(OC)c3)C2=O)ccc1O (stereo unspecified) | 15 µM (inactive) | 3.93 µM (inactive) | 8.41 µM (inactive) | 12.4 µM (inactive) | 17 µM (inactive) | 5.11 µM (inactive) | 0.964 µM (active) | 17.1 µM (inactive) | 7.13 µM (inactive) | 17.5 µM (inactive) | 1.14 µM (inactive) | 12.1 µM (inactive) | 9.48 µM (inactive) | 0.522 µM (active) | 25.1 µM | 6.92 µM (inactive) | 15.4 µM (inactive) | 4.83 µM (inactive) |  | 
3 | COCOCC/C=C/C=O | > 100 µM (inactive) | > 100 µM (inactive) | > 100 µM (inactive) | > 100 µM (inactive) |  | > 100 µM (inactive) | > 100 µM (inactive) | > 100 µM (inactive) | > 100 µM (inactive) | > 100 µM (inactive) | > 100 µM (inactive) | > 100 µM (inactive) | > 100 µM (inactive) | > 100 µM (inactive) | > 100 µM | > 100 µM (inactive) | > 100 µM (inactive) | > 100 µM (inactive) | > 100 µM (inactive) | 
4 | [N-]=[N+]=NC1=C(c2ccccc2)C(=O)c2cccc3cccc1c23 | 5.48 µM (inactive) | 7.13 µM (inactive) | 15 µM (inactive) | 15.2 µM (inactive) |  | 11.9 µM (inactive) | 2.55 µM (inactive) | 65 µM (inactive) | 7 µM (inactive) | 11.4 µM (inactive) | 4.85 µM (inactive) | > 100 µM (inactive) | 18.8 µM (inactive) |  | 17.8 µM | 33.3 µM (inactive) | 8.3 µM (inactive) | 25.8 µM (inactive) | 1.52 µM (inactive) | 12.2 µM (inactive)
